Values joined by “and” are separate entries in the source; they are usually repeats but may differ in a detail not shown here. Equal values may be shown once. Toxic doses and inconclusive results are not listed.
Test system: L1210 leukemia ip in BDF1 mice, survival T/C
Assay: NCI In Vivo Anticancer Drug Screen. Data for tumor model L1210 Leukemia (intraperitoneal) in B6D2F1 (BDF1) mice
Settings: endpoint: mean survival time, higher = longer survival
How it was run: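 Read-out is survival time, reported as the treated-group measurement over the vehicle-control measurement.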

[1] = dose: 100.0 mg/kg/injection, schedule: Q04DX003 (ip), vehicle: saline
[2] = dose: 200.0 mg/kg/injection, schedule: Q04DX003 (ip), vehicle: saline
[3] = dose: 400.0 mg/kg/injection, schedule: Q01DX009 (ip), vehicle: saline
[4] = dose: 400.0 mg/kg/injection, schedule: Q04DX003 (ip), vehicle: saline
[5] = dose: 50.0 mg/kg/injection, schedule: Q01DX001 (ip), vehicle: carboxymethylcellulose (CMC)
[6] = dose: 100.0 mg/kg/injection, schedule: Q01DX001 (ip), vehicle: carboxymethylcellulose (CMC)
[7] = dose: 200.0 mg/kg/injection, schedule: Q01DX001 (ip), vehicle: carboxymethylcellulose (CMC)
[8] = dose: 400.0 mg/kg/injection, schedule: Q01DX001 (ip), vehicle: carboxymethylcellulose (CMC)
[9] = dose: 100.0 mg/kg/injection, schedule: Q01DX001 (ip), vehicle: saline with Tween-80
[10] = dose: 100.0 mg/kg/injection, schedule: Q01DX001 (ip), vehicle: saline
[11] = dose: 200.0 mg/kg/injection, schedule: Q01DX001 (ip), vehicle: saline
[12] = dose: 400.0 mg/kg/injection, schedule: Q01DX001 (ip), vehicle: saline
[13] = dose: 100.0 mg/kg/injection, schedule: Q01DX009 (ip), vehicle: saline with Tween-80
[14] = dose: 100.0 mg/kg/injection, schedule: Q04DX003 (ip), vehicle: saline with Tween-80
[15] = dose: 200.0 mg/kg/injection, schedule: Q01DX009 (ip), vehicle: saline with Tween-80
[16] = dose: 200.0 mg/kg/injection, schedule: Q04DX003 (ip), vehicle: saline with Tween-80
[17] = dose: 400.0 mg/kg/injection, schedule: Q01DX009 (ip), vehicle: saline with Tween-80
[18] = dose: 100.0 mg/kg/injection, schedule: Q04DX003 (ip), vehicle: Klucel (hydroxypropylcellulose) (HPC)
[19] = dose: 200.0 mg/kg/injection, schedule: Q04DX003 (ip), vehicle: Klucel (hydroxypropylcellulose) (HPC)
[20] = dose: 400.0 mg/kg/injection, schedule: Q04DX003 (ip), vehicle: Klucel (hydroxypropylcellulose) (HPC)
[21] = dose: 400.0 mg/kg/injection, schedule: Q04DX003 (ip), vehicle: saline with Tween-80

For `CCC(C)(CC(=O)O)CC(=O)O`, the T/C (dose: 100.0 mg/kg/injection, schedule: Q01DX009 (ip), vehicle: saline) was 107 % of control, the T/C [1] was 93 % of control and the T/C (dose: 200.0 mg/kg/injection, schedule: Q01DX009 (ip), vehicle: saline) was 93 % of control. For the same compound, the T/C [2] was 90 % of control, the T/C [3] was 96 % of control and the T/C [4] was 92 % of control.

In the case of `Cc1ccc2c(c1)C(=O)c1ccccc1C2=O`, the T/C [5] is reported as 95 % of control, the T/C [6] is reported as 101 % of control and the T/C (dose: 100.0 mg/kg/injection, schedule: Q04DX002 (ip), vehicle: Klucel (hydroxypropylcellulose) (HPC)) is reported as 100 % of control. For the same compound, the T/C [7] was 91 % of control, the T/C (dose: 200.0 mg/kg/injection, schedule: Q04DX002 (ip), vehicle: Klucel (hydroxypropylcellulose) (HPC)) was 107 % of control and the T/C [8] was 95 % of control. For the same compound, the T/C (dose: 400.0 mg/kg/injection, schedule: Q04DX002 (ip), vehicle: Klucel (hydroxypropylcellulose) (HPC)) was 96 % of control.

For `c1cc(-c2ncc[nH]2)ccn1`, the T/C [9] was 100 % of control.

`CN1CCN(c2ccccc2)CC1` was tested, and the T/C (dose: 25.0 mg/kg/injection, schedule: Q01DX001 (ip), vehicle: saline with Tween-80) was 168 % of control, the T/C (dose: 50.0 mg/kg/injection, schedule: Q01DX001 (ip), vehicle: saline with Tween-80) was 98 % of control and the T/C [9] was 196 % of control.

`OC/C=C\CO` was tested, and the T/C [10] was 97 % of control and 103 % of control, the T/C [11] was 97 % of control and 100 % of control and the T/C [12] was 97 % of control and 105 % of control.

For `Cc1cc(S(=O)(=O)F)ccc1NC(=O)/C=C/c1ccc([N+](=O)[O-])cc1`, the T/C (dose: 100.0 mg/kg/injection, schedule: Q01DX009 (ip), vehicle: Klucel (hydroxypropylcellulose) (HPC)) was 97 % of control and the T/C (dose: 400.0 mg/kg/injection, schedule: Q01DX009 (ip), vehicle: Klucel (hydroxypropylcellulose) (HPC)) was 92 % of control.

For `CCCCCCCCOB(OCCCCCCCC)OCCCCCCCC`, the T/C [5] was 96 % of control, the T/C [6] was 100 % of control and the T/C [13] was 96 % of control. The T/C [14] was 98 % of control, the T/C [7] was 96 % of control and the T/C [15] was 95 % of control. For the same compound, the T/C [16] was 94 % of control and the T/C [8] was 100 % of control.

For `Cc1ccc(NC2=C(Cl)C(=O)c3ccccc3C2=O)cc1`, the T/C [5] was 101 % of control, the T/C [6] was 95 % of control and the T/C [7] was 93 % of control. The T/C [8] was 89 % of control.

With `Cc1ccc(NC(=O)NC2CCCCC2)cc1` the T/C [13] was 94 % of control, the T/C [15] was 97 % of control and the T/C [17] was 92 % of control.

In the case of `O=C(NCCCCCCCCCCNC(=O)Nc1ccc(C2=NCCN2)cc1)Nc1ccc(C2=NCCN2)cc1`, the T/C (dose: 62.5 mg/kg/injection, schedule: Q01DX Z (ip), vehicle: carboxymethylcellulose (CMC)) is reported as 98 % of control, the T/C (dose: 125.0 mg/kg/injection, schedule: Q01DX Z (ip), vehicle: carboxymethylcellulose (CMC)) is reported as 98 % of control and the T/C (dose: 250.0 mg/kg/injection, schedule: Q01DX Z (ip), vehicle: carboxymethylcellulose (CMC)) is reported as 106 % of control. For the same compound, the T/C (dose: 500.0 mg/kg/injection, schedule: Q01DX Z (ip), vehicle: carboxymethylcellulose (CMC)) was 114 % of control.

With `O=C(Cc1cccc2ccccc12)N/N=C/c1ccccc1O` the T/C (dose: 25.0 mg/kg/injection, schedule: Q01DX009 (ip), vehicle: saline with Tween-80) was 86 % of control, the T/C (dose: 50.0 mg/kg/injection, schedule: Q01DX009 (ip), vehicle: saline with Tween-80) was 93 % of control and the T/C [13] was 100 % of control and 89 % of control.

With `Nc1ccc(I)cc1` the T/C [14] was 104 % of control and the T/C [16] was 109 % of control.

For `CC12CCC(C/C1=C\C#N)C(C)(C)O2` (stereo unspecified), the T/C [18] was 98 % of control, the T/C [19] was 98 % of control and the T/C [20] was 101 % of control.

For `O=C1Nc2ccccc2C2Cc3c([nH]c4ccccc34)CC12` (stereo unspecified), the T/C (dose: 50.0 mg/kg/injection, schedule: Q01DX001 (ip), vehicle: saline) was 115 % of control, the T/C [10] was 104 % of control and the T/C [11] was 104 % of control. The T/C [12] was 89 % of control.

With `c1ccc(-c2cc3c(cc2-c2ccccc2)C(c2ccccc2)(c2ccccc2)c2nc4ccccc4nc2-3)cc1` the T/C [14] was 95 % of control, the T/C [16] was 93 % of control and the T/C [21] was 91 % of control.

With `CC1CCC2(C)CCC3(C)C(=CCC4C5(C)CCC(OC(=O)c6ccccc6)C(C)(C)C5CCC43C)C2C1C` (stereo unspecified) the T/C [9] was 96 % of control and the T/C (dose: 200.0 mg/kg/injection, schedule: Q01DX001 (ip), vehicle: saline with Tween-80) was 102 % of control.

For `COC1/C=C/O[C@@]2(C)Oc3c(C)c(O)c4c(O)c(cc(O)c4c3C2=O)NC(=O)/C(C)=C\C=C\[C@H](C)C(O)[C@@H](C)[C@@H](O)[C@@H](C)[C@H](OC(C)=O)[C@@H]1C` (stereo partly specified), the T/C (dose: 4.0 mg/kg/injection, schedule: Q03HX040 (ip), vehicle: saline) was 101 % of control, the T/C (dose: 8.0 mg/kg/injection, schedule: Q03HX040 (ip), vehicle: saline) was 103 % of control and the T/C (dose: 16.0 mg/kg/injection, schedule: Q03HX040 (ip), vehicle: saline) was 97 % of control. The T/C [13] was 104 % of control, the T/C [14] was 95 % of control and the T/C (dose: 119.0 mg/kg/injection, schedule: Q01DX009 (ip), vehicle: saline) was 98 % of control. For the same compound, the T/C (dose: 128.0 mg/kg/injection, schedule: Q03HX024 (ip), vehicle: saline) was 92 % of control, the T/C (dose: 128.0 mg/kg/injection, schedule: Q03HX040 (ip), vehicle: saline) was 89 % of control and the T/C (dose: 178.0 mg/kg/injection, schedule: Q01DX009 (ip), vehicle: saline) was 96 % of control. For the same compound, the T/C [15] was 92 % of control, the T/C [16] was 87 % of control and the T/C (dose: 256.0 mg/kg/injection, schedule: Q03HX024 (ip), vehicle: saline) was 93 % of control. The T/C (dose: 267.0 mg/kg/injection, schedule: Q01DX009 (ip), vehicle: saline) was 98 % of control, the T/C [17] was 97 % of control and the T/C [3] was 104 % of control. The T/C [21] was 101 % of control, the T/C (dose: 512.0 mg/kg/injection, schedule: Q03HX024 (ip), vehicle: saline) was 92 % of control and the T/C (dose: 512.0 mg/kg/injection, schedule: Q03HX040 (ip), vehicle: saline) was 88 % of control. For the same compound, the T/C (dose: 1024.0 mg/kg/injection, schedule: Q03HX024 (ip), vehicle: saline) was 98 % of control.

In the case of `O=P(c1ccccc1)(N1CCCC1)N1CCCC1`, the T/C [1] is reported as 95 % of control and the T/C [2] is reported as 92 % of control.

For `CC1=CCc2c(NS(=O)(=O)N(C)C)ccc(NS(=O)(=O)N(C)C)c2C1`, the T/C (dose: 100.0 mg/kg/injection, schedule: Q01DX001 (ip), vehicle: Klucel (hydroxypropylcellulose) (HPC)) was 101 % of control, the T/C [18] was 94 % of control and the T/C (dose: 200.0 mg/kg/injection, schedule: Q01DX001 (ip), vehicle: Klucel (hydroxypropylcellulose) (HPC)) was 97 % of control. For the same compound, the T/C [19] was 93 % of control, the T/C (dose: 400.0 mg/kg/injection, schedule: Q01DX001 (ip), vehicle: Klucel (hydroxypropylcellulose) (HPC)) was 97 % of control and the T/C [20] was 91 % of control.

For `CC(C)(C)C1CCC(=O)CC1`, the T/C (dose: 12.5 mg/kg/injection, schedule: Q04DX002 (ip), vehicle: saline) was 109 % of control, the T/C (dose: 25.0 mg/kg/injection, schedule: Q04DX002 (ip), vehicle: saline) was 106 % of control and the T/C (dose: 50.0 mg/kg/injection, schedule: Q04DX002 (ip), vehicle: saline) was 95 % of control. For the same compound, the T/C (dose: 100.0 mg/kg/injection, schedule: Q04DX002 (ip), vehicle: saline) was 99 % of control.

With `COC(=O)CC(CC(=O)OC)c1cccc([N+](=O)[O-])c1` the T/C (dose: 25.6 mg/kg/injection, schedule: Q04DX002 (ip), vehicle: saline with Tween-80) was 101 % of control, the T/C (dose: 64.0 mg/kg/injection, schedule: Q04DX002 (ip), vehicle: saline with Tween-80) was 101 % of control and the T/C [14] was 106 % of control. For the same compound, the T/C (dose: 160.0 mg/kg/injection, schedule: Q04DX002 (ip), vehicle: saline with Tween-80) was 101 % of control, the T/C [16] was 101 % of control and the T/C (dose: 400.0 mg/kg/injection, schedule: Q04DX002 (ip), vehicle: saline with Tween-80) was 86 % of control. The T/C [21] was 101 % of control.

For `O=S1(=O)c2ccccc2NC(c2ccc(Cl)cc2)C1c1ccccc1` (stereo unspecified), the T/C [1] was 95 % of control, the T/C [2] was 89 % of control and the T/C [4] was 97 % of control.

With `O=C(CC1CCCCN1)CC1CCCCN1` (stereo unspecified) the T/C [1] was 92 % of control and the T/C [2] was 101 % of control.

Source: PubChem BioAssay AID248 (DTP/NCI, 2004)
